Assay results taken from EP4745135A1 (Gluetacs Therapeutics (Shanghai) Co., Ltd., priority 2023, dated 2025).

Legend:
CK1α = target: T1, CK1α (Homo sapiens, UniProt P48729+Q96SW2); test: Western blot, degradation of substrate protein in hPBMCs; type: cell-based
T1 construct: effects of the compounds of the present disclosure on the expression of target proteins in cells; endogenous in cells; host or cells: human PBMCs (Milecell Biotechnologies)
Description: (§1) Conventional Western blot assay was performed to evaluate the effects of the compounds of the present disclosure on the expression of target proteins in cells. • (1) Cell Seeding and Protein Harvesting: Human peripheral blood mononuclear cells (hPBMCs) at a density of 1×10^6 cells/mL were thawed according to the PBMC Recovery Protocol (Milecell Biotechnologies Inc, Shanghai). […] After 24 hours of compounds treatment, cells were harvested and lysed in RIPA protein lysate containing protease inhibitors on ice for 30 min, followed by centrifugation. The supernatant was aspirated as the extracted total cell protein. The protein concentration of the supernatant was determined using the conventional BCA (Bicinchoninic Acid) assay. • (2) To the collected supernatant, 5X SDS sample loading buffer was added, followed by denaturation at 95°C for 5 minutes. The denatured samples were then separated by SDS-PAGE electrophoresis on a polyacrylamide gel, transferred onto a nitrocellulose membrane (0.45 µm NC membrane), blocked with blocking buffer at room temperature for 1 hour, and subjected to antibody incubation and development procedures according to the antibody manufacturer's instructions (Cell Signaling Technology Company).
(§2) Half-Maximal Degradation Concentration value (the drug concentration required for degrading proteins by 50%, abbreviated as DC50) reads method: comparing the grayscale values of Western blot bands from drug-treated samples with those from blank DMSO-treated controls, and identifying the drug concentration range at which the grayscale value is half that of the DMSO-treated control bands.
(§3) DC50 values can be calculated using ImageJ software to measure grayscale values of Western blot bands from drug-treated samples. The concentration-response curve is fitted to estimate the drug concentration corresponding to half the grayscale value.
(§4) Target protein remaining (%) refers to the percentage of target protein remaining in cells after treatment with protein degrader compounds.
(§5) Calculation method for target protein remaining (%): Use ImageJ software to measure grayscale values of Western blot bands from drug (protein degrader)-treated samples. The grayscale value of drug-treated bands is divided by that of internal control protein bands, and the resulting quotient is normalized to obtain the relative percentage of remaining target protein after protein degrader treatment.
(§6) Target protein degradation rate (%) = 1−target protein remaining (%). [formula]

IKZF1 = target: T2, IKZF1 (Homo sapiens, UniProt Q13422+Q96SW2); test: as above; type: cell-based
T2 construct: effects of the compounds of the present disclosure on the expression of target proteins in cells; endogenous in cells; host or cells: human PBMCs (Milecell Biotechnologies)
T2 sequence (Q13422 whole entry): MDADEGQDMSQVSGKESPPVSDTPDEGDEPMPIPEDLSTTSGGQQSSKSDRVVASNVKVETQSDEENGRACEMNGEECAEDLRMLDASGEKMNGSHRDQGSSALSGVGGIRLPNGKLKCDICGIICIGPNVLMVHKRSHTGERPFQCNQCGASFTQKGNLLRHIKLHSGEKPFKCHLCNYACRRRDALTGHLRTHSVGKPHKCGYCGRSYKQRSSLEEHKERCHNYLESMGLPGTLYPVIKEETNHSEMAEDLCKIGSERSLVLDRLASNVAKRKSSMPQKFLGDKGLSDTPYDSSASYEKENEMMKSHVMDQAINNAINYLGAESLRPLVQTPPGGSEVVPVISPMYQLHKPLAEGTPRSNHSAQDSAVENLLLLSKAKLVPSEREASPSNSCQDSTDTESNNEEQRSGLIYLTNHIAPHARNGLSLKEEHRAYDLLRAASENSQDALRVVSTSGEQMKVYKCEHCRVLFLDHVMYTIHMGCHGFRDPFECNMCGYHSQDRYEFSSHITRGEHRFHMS
T2 sequence (Q96SW2 whole entry): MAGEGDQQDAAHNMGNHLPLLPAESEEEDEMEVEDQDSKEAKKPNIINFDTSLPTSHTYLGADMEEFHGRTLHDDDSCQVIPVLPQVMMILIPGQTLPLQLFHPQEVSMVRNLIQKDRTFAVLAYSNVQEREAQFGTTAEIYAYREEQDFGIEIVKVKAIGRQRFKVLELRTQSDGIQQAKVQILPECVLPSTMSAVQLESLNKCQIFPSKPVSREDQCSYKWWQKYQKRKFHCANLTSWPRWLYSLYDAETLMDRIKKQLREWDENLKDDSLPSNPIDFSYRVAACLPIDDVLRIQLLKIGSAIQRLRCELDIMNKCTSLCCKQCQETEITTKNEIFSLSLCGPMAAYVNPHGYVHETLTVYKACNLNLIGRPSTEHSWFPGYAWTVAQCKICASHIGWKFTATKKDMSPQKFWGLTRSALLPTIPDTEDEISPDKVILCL
T2 sequence (Q16531 whole entry partner): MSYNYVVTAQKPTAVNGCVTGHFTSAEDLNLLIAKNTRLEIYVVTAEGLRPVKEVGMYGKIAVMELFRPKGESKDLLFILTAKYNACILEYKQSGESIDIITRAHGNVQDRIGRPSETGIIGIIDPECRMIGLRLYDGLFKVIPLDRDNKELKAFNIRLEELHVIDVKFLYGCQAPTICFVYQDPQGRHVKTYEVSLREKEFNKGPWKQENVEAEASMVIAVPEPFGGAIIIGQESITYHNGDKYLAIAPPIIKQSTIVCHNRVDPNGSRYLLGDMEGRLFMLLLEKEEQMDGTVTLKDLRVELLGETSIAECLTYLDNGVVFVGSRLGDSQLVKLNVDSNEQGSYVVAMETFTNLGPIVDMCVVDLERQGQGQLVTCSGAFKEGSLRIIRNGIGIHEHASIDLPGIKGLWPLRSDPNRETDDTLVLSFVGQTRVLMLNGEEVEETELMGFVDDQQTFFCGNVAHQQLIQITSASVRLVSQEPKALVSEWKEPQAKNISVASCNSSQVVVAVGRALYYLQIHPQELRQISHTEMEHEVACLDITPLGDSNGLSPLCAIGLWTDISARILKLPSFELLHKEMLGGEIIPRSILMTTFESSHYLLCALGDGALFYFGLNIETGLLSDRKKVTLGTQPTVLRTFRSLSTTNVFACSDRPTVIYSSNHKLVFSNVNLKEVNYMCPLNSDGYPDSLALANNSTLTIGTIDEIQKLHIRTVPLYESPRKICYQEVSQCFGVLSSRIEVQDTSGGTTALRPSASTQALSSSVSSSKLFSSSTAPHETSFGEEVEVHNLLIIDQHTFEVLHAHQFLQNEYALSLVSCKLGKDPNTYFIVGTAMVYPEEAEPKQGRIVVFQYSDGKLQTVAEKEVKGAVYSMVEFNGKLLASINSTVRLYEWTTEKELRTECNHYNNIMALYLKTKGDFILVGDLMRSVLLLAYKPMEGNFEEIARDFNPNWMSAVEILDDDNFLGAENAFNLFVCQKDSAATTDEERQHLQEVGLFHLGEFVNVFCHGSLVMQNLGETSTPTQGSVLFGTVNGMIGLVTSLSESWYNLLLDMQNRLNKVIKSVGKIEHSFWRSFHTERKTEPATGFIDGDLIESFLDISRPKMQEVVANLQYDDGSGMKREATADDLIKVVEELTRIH
Description: as §1, §2, §3, §4, §5, §6

IKZF2 = target: T3, IKZF2 (Homo sapiens, UniProt Q96SW2+Q9UKS7); test: as above; type: cell-based
T3 construct: effects of the compounds of the present disclosure on the expression of target proteins in cells; endogenous in cells; host or cells: human PBMCs (Milecell Biotechnologies)
T3 sequence (Q9UKS7 whole entry): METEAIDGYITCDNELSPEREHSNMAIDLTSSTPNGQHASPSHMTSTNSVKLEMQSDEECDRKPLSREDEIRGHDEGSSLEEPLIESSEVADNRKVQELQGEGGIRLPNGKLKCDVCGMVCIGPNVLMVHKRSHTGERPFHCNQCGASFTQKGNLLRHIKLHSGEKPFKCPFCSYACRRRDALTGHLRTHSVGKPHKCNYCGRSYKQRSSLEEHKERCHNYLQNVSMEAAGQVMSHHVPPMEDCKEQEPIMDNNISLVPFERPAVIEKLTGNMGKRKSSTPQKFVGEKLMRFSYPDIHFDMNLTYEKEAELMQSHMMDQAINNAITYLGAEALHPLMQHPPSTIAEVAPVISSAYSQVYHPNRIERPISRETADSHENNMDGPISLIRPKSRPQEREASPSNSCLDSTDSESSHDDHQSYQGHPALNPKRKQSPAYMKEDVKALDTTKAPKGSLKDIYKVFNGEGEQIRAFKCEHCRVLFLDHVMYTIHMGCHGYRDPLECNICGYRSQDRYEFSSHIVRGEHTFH
T3 sequence (Q96SW2 whole entry): as the sequence (Q96SW2 whole entry) above
T3 sequence (Q16531 whole entry partner): as the sequence (Q16531 whole entry partner) above
Description: as §1, §2, §3, §4, §5, §6

IKZF3 = target: T4, IKZF3 (Homo sapiens, UniProt Q96SW2+Q9UKT9); test: as above; type: cell-based
T4 construct: effects of the compounds of the present disclosure on the expression of target proteins in cells; endogenous in cells; host or cells: human PBMCs (Milecell Biotechnologies)
T4 sequence (Q9UKT9 whole entry): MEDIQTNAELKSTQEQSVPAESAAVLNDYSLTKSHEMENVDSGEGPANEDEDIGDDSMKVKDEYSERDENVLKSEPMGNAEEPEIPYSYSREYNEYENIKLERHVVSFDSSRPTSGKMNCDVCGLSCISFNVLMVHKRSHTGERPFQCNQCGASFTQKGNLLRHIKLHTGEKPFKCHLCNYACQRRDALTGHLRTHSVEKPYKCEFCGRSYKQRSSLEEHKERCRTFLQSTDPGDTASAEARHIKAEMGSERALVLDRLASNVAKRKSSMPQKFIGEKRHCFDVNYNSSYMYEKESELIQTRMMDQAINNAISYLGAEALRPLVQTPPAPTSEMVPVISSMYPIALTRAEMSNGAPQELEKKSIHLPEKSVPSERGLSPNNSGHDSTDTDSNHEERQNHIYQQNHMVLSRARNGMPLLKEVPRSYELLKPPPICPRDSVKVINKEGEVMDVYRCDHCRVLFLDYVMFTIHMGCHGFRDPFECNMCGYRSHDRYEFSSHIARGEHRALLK
T4 sequence (Q96SW2 whole entry): as the sequence (Q96SW2 whole entry) above
T4 sequence (Q16531 whole entry partner): as the sequence (Q16531 whole entry partner) above
Description: as §1, §2, §3, §4, §5, §6

WEE1 = target: T5, WEE1 (Homo sapiens, UniProt P30291+Q96SW2); test: as above; type: cell-based
T5 construct: effects of the compounds of the present disclosure on the expression of target proteins in cells; endogenous in cells; host or cells: human PBMCs (Milecell Biotechnologies)
T5 sequence (P30291 whole entry): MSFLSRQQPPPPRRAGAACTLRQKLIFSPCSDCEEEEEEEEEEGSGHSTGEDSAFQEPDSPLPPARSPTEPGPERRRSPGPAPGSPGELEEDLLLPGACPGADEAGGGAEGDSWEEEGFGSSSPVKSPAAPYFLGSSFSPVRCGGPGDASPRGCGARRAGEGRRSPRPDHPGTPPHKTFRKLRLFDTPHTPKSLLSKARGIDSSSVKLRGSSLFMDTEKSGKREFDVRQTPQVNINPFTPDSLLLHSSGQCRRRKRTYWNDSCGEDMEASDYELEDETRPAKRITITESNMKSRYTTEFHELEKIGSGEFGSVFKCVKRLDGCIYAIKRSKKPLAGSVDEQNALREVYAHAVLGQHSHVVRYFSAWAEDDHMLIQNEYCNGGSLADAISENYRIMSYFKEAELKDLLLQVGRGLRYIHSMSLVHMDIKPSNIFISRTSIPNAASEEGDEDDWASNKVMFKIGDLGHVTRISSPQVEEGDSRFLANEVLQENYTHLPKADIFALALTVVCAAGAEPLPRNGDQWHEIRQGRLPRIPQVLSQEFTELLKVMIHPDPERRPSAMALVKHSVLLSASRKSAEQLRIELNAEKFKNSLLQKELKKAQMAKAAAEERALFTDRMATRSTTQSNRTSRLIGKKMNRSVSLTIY
T5 sequence (Q96SW2 whole entry): as the sequence (Q96SW2 whole entry) above
T5 sequence (Q16531 whole entry partner): as the sequence (Q16531 whole entry partner) above
Description: as §1, §2, §3, §4, §5, §6

GSPT1 = test: as above; type: cell-based, Human
Description: as §1, §2, §3, §4, §5, §6

[1] = target: T6, human Cereblon WT GST-tagged protein (Homo sapiens, UniProt Q96SW2); test: CRBN-binding affinity, HTRF (CEREBLON BINDING kit); settings: for inhibition at 0.5 µM: read-out: Inhibition Rate at 0.5 µM (%); for inhibition at 2 µM: read-out: Inhibition Rate at 2 µM (%)
T6 construct: purchased CISBIO 64BDCRBNPEH
T6 sequence (Q96SW2 whole entry): as the sequence (Q96SW2 whole entry) above
Description: The CEREBLON BINDING kits (specification: 10,000 tests; product number: Catalog # 64BDCRBNPEH; CISBIO company) was used to determine the CRBN binding ability of the compounds to be tested through a HTRF method (homogeneous time-resolved fluorescence). The specific methods are as follows: • 1. […] Specifically, diluent #9 (1X) solution was used as the diluent, and multiple concentration gradients were set. […] Then, 2.5 µL of human Cereblon WT GST-tagged protein solution was added to each well. Finally, 5 µL of the thoroughly mixed Thalidomide-Re reagent and GST Eu antibody working solution were added to each of the aforementioned wells. […] The blank control wells were sequentially added with 2.5 µL of diluent #9 (1X) solution, 2.5 µL of PROTAC binding buffer, and 5 µL of thoroughly mixed Thalidomide-Re reagent and GST Eu antibody working solution. • 4.

[2] = Western blot, 24 hours of compound treatment, compounds tested at 50 nM and 500 nM (concentration for the table not stated)
[3] = 24 hours treatment, compounds at 50 nM and 500 nM (concentration behind the class not stated)

T1 sequence (P48729 whole entry): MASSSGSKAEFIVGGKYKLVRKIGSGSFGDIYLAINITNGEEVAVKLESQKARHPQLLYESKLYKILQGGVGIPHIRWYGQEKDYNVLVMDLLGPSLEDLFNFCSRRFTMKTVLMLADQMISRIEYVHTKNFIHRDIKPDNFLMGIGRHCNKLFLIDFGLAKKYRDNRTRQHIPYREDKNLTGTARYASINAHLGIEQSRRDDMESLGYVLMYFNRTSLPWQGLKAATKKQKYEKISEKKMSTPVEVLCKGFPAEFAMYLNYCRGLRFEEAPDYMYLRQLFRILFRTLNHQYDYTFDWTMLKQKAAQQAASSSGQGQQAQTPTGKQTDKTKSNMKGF
T1 sequence (Q96SW2 whole entry): as the sequence (Q96SW2 whole entry) above
T1 sequence (Q16531 whole entry partner): as the sequence (Q16531 whole entry partner) above

| inhibition at 0.5 µM [1] | inhibition at 2 µM [1] | SMILES | CK1α substrate protein remaining % (CK1α; [2]) | IKZF 1 substrate protein remaining % (IKZF1; [2]) | IKZF2 substrate protein remaining % (IKZF2; [2]) | IKZF3 substrate protein remaining % (IKZF3; [2]) | Wee1 substrate protein remaining % (WEE1; [2]) | GSPT1 substrate protein remaining % (GSPT1; [2]) | other results |
| --- | --- | --- | --- | --- | --- | --- | --- | --- | --- |
|  |  | O=C1CCC(N2Cc3c(CN4CCN(c5cccc(Cl)c5Cl)CC4)cccc3C2=S)C(=O)N1 (stereo not drawn) [GT-08258, 3-(4-((4-(2,3-dichlorophenyl)piperazin-1-yl)methyl)-1-thioxoisoindolin-2-yl)piperidine-2,6-dione] | B (80%< substrate protein remaining %≤ 100%) | B (80%< substrate protein remaining %≤ 100%) | B (80%< substrate protein remaining %≤ 100%) | B (80%< substrate protein remaining %≤ 100%) | A (0% ≤ substrate protein remaining % ≤ 80%) | A (0% ≤ substrate protein remaining % ≤ 80%) |  |
|  |  | O=C1CCC(N2Cc3c(CN4CCN(c5ccccc5Br)CC4)cccc3C2=S)C(=O)N1 (stereo not drawn) [GT-08267, 3-(4-((4-(2-bromophenyl)piperazin-1-yl)methyl)-1-thioxoisoindolin-2-yl)piperidine-2,6-dione] | B (80%< substrate protein remaining %≤ 100%) | B (80%< substrate protein remaining %≤ 100%) | B (80%< substrate protein remaining %≤ 100%) | B (80%< substrate protein remaining %≤ 100%) | A (0% ≤ substrate protein remaining % ≤ 80%) | A (0% ≤ substrate protein remaining % ≤ 80%) |  |
|  |  | O=C1CCC(N2Cc3c(CN4CC=C(c5cccc(Cl)c5Cl)CC4)cccc3C2=S)C(=O)N1 (stereo not drawn) [GT-08270, 3-(4-((4-(2,3-dichlorophenyl)-3,6-dihydropyridin-1(2H)-yl)methyl)-1-thioxoisoindolin-2-yl)piperidine-2,6-dione] | B (80%< substrate protein remaining %≤ 100%) | B (80%< substrate protein remaining %≤ 100%) | B (80%< substrate protein remaining %≤ 100%) | B (80%< substrate protein remaining %≤ 100%) | A (0% ≤ substrate protein remaining % ≤ 80%) | A (0% ≤ substrate protein remaining % ≤ 80%) |  |
|  |  | O=C1CCC(N2Cc3c(CN4CCC(c5cccc(F)c5Cl)CC4)cccc3C2=S)C(=O)N1 (stereo not drawn) [GT-08321, 3-(4-((4-(2-chloro-3-fluorophenyl)piperidin-1-yl)methyl)-1-thioxoisoindolin-2-yl)piperidine-2,6-dione] |  |  |  |  |  |  | CK1α substrate protein remaining % (CK1α; [3]): B (80%< substrate protein remaining %≤ 100%); IKZF 1 substrate protein remaining % (IKZF1; [3]): B (80%< substrate protein remaining %≤ 100%); IKZF2 substrate protein remaining % (IKZF2; [3]): B (80%< substrate protein remaining %≤ 100%); IKZF3 substrate protein remaining % (IKZF3; [3]): A (0% ≤ substrate protein remaining % ≤ 80%); Wee1 substrate protein remaining % (WEE1; [3]): A (0% ≤ substrate protein remaining % ≤ 80%); GSPT1 substrate protein remaining % (GSPT1; [3]): B (80%< substrate protein remaining %≤ 100%) |
|  |  | O=C1CCC(N2Cc3c(CN4CCC(c5nccc(Cl)c5Cl)CC4)cccc3C2=S)C(=O)N1 (stereo not drawn) [GT-08457, 3-(4-((4-(3,4-dichloropyridin-2-yl)piperidin-1-yl)methyl)-1-thioxoisoindolin-2-yl)piperidine-2,6-dione] | B (80%< substrate protein remaining %≤ 100%) | B (80%< substrate protein remaining %≤ 100%) | B (80%< substrate protein remaining %≤ 100%) | B (80%< substrate protein remaining %≤ 100%) | A (0% ≤ substrate protein remaining % ≤ 80%) | B (80%< substrate protein remaining %≤ 100%) |  |
|  |  | Cc1ccccc1N1CCN(Cc2cccc3c2CN(C2CCC(=O)NC2=O)C3=S)CC1 (stereo not drawn) [GT-08497, 3-(1-thioxo-4-((4-(o-tolyl)piperazin-1-yl)methyl)isoindolin-2-yl)piperidine-2,6-dione] | B (80%< substrate protein remaining %≤ 100%) | A (0% ≤ substrate protein remaining % ≤ 80%) | A (0% ≤ substrate protein remaining % ≤ 80%) | B (80%< substrate protein remaining %≤ 100%) | A (0% ≤ substrate protein remaining % ≤ 80%) | A (0% ≤ substrate protein remaining % ≤ 80%) |  |
|  |  | O=C1CCC(N2Cc3c(CN4CCN(c5ccc(C(F)(F)F)cn5)CC4)cccc3C2=S)C(=O)N1 (stereo not drawn) [GT-08702, 3-(1-thioxo-4-((4-(5-(trifluoromethyl)pyridin-2-yl)piperazin-1-yl)methyl)isoindolin-2-yl)piperidine-2,6-dione] | B (80%< substrate protein remaining %≤ 100%) | B (80%< substrate protein remaining %≤ 100%) | B (80%< substrate protein remaining %≤ 100%) | B (80%< substrate protein remaining %≤ 100%) | A (0% ≤ substrate protein remaining % ≤ 80%) | B (80%< substrate protein remaining %≤ 100%) |  |
| 60 to 80% | 80 to 100% | Cc1cc2c(C3CCN(Cc4ccc5c(c4)CN(C4CCC(=O)NC4=O)C5=S)CC3)ncnc2s1 (stereo not drawn) [GT-09305, 3-(5-((4-(6-methylthieno[2,3-d]pyrimidin-4-yl)piperidin-1-yl)methyl)-1-thioxoisoindolin-2-yl)piperidine-2,6-dione] |  |  |  |  |  |  |  |
| 40 to 53% | 80 to 100% | O=C1CCC(N2Cc3cc(CN4CCC(c5ncnc6sc(-c7ccccc7)cc56)CC4)ccc3C2=S)C(=O)N1 (stereo not drawn) [GT-09306, 3-(5-((4-(6-phenylthieno[2,3-d]pyrimidin-4-yl)piperidin-1-yl)methyl)-1-thioxoisoindolin-2-yl)piperidine-2,6-dione] |  |  |  |  |  |  |  |
| 40 to 53% | 80 to 100% | Cc1nc(C2CCN(Cc3ccc4c(c3)CN(C3CCC(=O)NC3=O)C4=S)CC2)c2c(-c3ccccc3)csc2n1 (stereo not drawn) [GT-09308] |  |  |  |  |  |  |  |
| 40 to 53% | 80 to 100% | Cc1nc(C2=CCN(Cc3ccc4c(c3)CN(C3CCC(=O)NC3=O)C4=S)CC2)c2c3c(sc2n1)CCCC3 (stereo not drawn) [GT-09323, 3-(5-((4-(2-methyl-5,6,7,8-tetrahydrobenzo[4,5]thieno[2,3-d]pyrimidin-4-yl)-3,6-dihydropyridin-1(2H)-yl)methyl)-1-thioxoisoindolin-2-yl)piperidine-2,6-dione] |  |  |  |  |  |  |  |
| 60 to 80% | 80 to 100% | O=C1CCC(N2Cc3cc(CN4CCN(c5nc6c(c(N7CCOCC7)n5)SCC6)CC4)ccc3C2=S)C(=O)N1 (stereo not drawn) [GT-09330, 3-(5-((4-(4-morpholino-6,7-dihydrothieno[3,2-d]pyrimidin-2-yl)piperazin-1-yl)methyl)-1-thioxoisoindolin-2-yl)piperidine-2,6-dione] |  |  |  |  |  |  |  |
| 60 to 80% | 80 to 100% | O=C1CCC(N2Cc3cc(CN4CCN(c5ccnc(Cl)c5Cl)CC4)ccc3C2=S)C(=O)N1 (stereo not drawn) [GT-09354, 3-(5-((4-(2,3-dichloropyridin-4-yl)piperazin-1-yl)methyl)-1-thioxoisoindolin-2-yl)piperidine-2,6-dione] |  |  |  |  |  |  |  |
